Assay results as given in patent EP0603240B1, “SAFENING HERBICIDAL PYRAZOLYLSULFONYLUREAS” (priority 1991, dated 1993).

Tests used:
[1] = test system: barnyardgrass (Echinochloa crusgalli); experiment: Example 8, Procedure II: Herbicide No. 1 + butachlor (No. 9) with antidotes; format: in vivo
Experimental: (§1) Containers were filled and compacted with a fumigated silt loam top soil to a depth of about 1.3 cm from the top of the container. A first container was designated as an untreated control, a second container was designated as a herbicide control, and a third container was designated as a herbicide + antidote test container. Each of the containers was seeded with a crop species. A measured amount of herbicide dispersed or dissolved in acetone was applied to a measured quantity of soil. To this same quantity of soil treated with herbicide, there was added a measured amount of antidote dispersed or dissolved in acetone. The quantity of soil treated with the herbicide and antidote was thoroughly mixed to incorporate the herbicide and antidote in the soil uniformly. The seed bed in the third container of soil was covered with the soil treated with the herbicide and antidote and the container was leveled. For each test series, the seed beds of the first and second containers were likewise covered by soil layers. the cover layer of the first container was not treated with herbicide or antidote.
(§2) The containers were then placed on a bench in a greenhouse and sub-irrigated as required for the duration of the test. […] Plant response is measured in terms of percent injury. Antidote efficacy is indicated as the difference in plant injury by the herbicide(s) without the antidote and with the antidote.
(§3) This procedure is the same as Procedure I, but modified in the manner that after incorporation of the chemicals (herbicide and antidote) the containers with the covered seedbed were treated with an initial overhead irrigation equivalent to 0.6 cm rainfall, then subsequently sub-irrigated as required on greenhouse benches.
(§4) In the series of greenhouse tests described below, for routine screening purposes the herbicide/antidote compositions were tested in crop/weed combinations involving corn as the crop and either or both of the weeds barnyardgrass (Echinochloa crusgalli), a monocotyledonous weed, and velvetleaf (Abutilon theophrasti), a dicotyledonous weed. In the tables below, these weeds are indicated by the symbols "BYG" and "VL", respectively.
(§5) In this test, the efficacy of the same five antidotes used in Examples 6 and 7 was investigated in compositions comprising Herbicide No. 1 and as a co-herbicide, butachlor (Herbicide No. 9), active ingredient in MACHETE® herbicide, a leading commercial rice herbicide. The test procedure used in this example was the same as that in Examples 6 and 7.

[2] = test system: velvetleaf (Abutilon theophrasti); experiment: as above; format: in vivo
Experimental: as §1, §2, §3, §4, §5

corn [3] = experiment: Example 18, Procedure II: Herbicide No. 1 + ERADICANE (EPTC + R-25788) with auxiliary antidotes; format: in vivo
Experimental: as §1, §2, §3
In the test reported in this example, the herbicidal composition was similar to that used in Example 16 in that Herbicide No. 1 was combined with EPTC (Herbicide No. 4) as a co-herbicide and the antidotes included Nos. 1, 2, 7, 13 and 15. However, in this test the EPTC was introduced as a formulation of ERADICANE (EPTC + the antidote R-25788, i.e., Antidote No. 1) at an application rate of 8.96 kg/ha. Thus, in this test two antidotes were present, viz. R-25788 and one of the auxilliary antidotes, No. 2, 13 and 15.
Test procedures were those of Procedure II above.

corn [4] = experiment: Example 25, greenhouse preemergence test: Antidote Nos. 1 and 2 against Herbicide Nos. 1-3; format: in vivo, Corn (Pioneer 3424 variety); settings: Preemergence
Outline: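 Greenhouse preemergence application; herbicides as wettable powders, dichlormid as emulsifiable concentrate, naphthalic anhydride as conventional seed coating on corn before planting. Rates in g active ingredient/ha; naphthalic anhydride amount not quantified. Corn injury scored as percent growth inhibition.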

[5] = test system: barnyardgrass (Echinochloa crusgalli); experiment: Example 9, Procedure II: Herbicide No. 1 + pretilachlor (No. 13) with antidotes; format: in vivo
Experimental: as §1, §2, §3, §4
(§6) In this example the safening effect on a composition comprising Herbicide No. 1 and another leading rice herbicide, i.e., Herbicide No. 13, was investigated using the same antidotes and test procedure described in the preceding example. Herbicide No. 13 is pretilachlor, active ingredient used in the commercial rice herbicides RIFIT®, SOFIT® and SOFIT® SUPER.

[6] = test system: velvetleaf (Abutilon theophrasti); experiment: as above; format: in vivo
Experimental: as §1, §2, §3, §4, §6

corn [7] = experiment: as above; format: in vivo
Experimental: as §1, §2, §3, §6

corn [8] = experiment: Example 12, Procedure II: Herbicide No. 1 + acetochlor (No. 6) with thirteen antidotes; format: in vivo
Outline: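 Herbicide and antidote in acetone were mixed into silt loam used to cover the corn seed bed, alongside untreated and herbicide-only controls. After incorporation, an overhead irrigation equal to 0.6 cm rainfall was given, then sub-irrigation in a greenhouse. Injury was scored as percent; safening is the injury difference without versus with antidote.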

corn [9] = experiment: Example 4, Procedure I: Antidote Nos. 15 and 16 against Herbicide No. 1; format: in vivo
Experimental: as §1, §2
This example describes tests with Antidote Nos. 15 and 16 to safen Herbicide No. 1 according to Procedure I using corn and the weeds barnyardgrass and velvetleaf as the test plants.

[10] = Herbicide No.1 0.14 + No.9 2.24 kg/ha + antidote 2.24 kg/ha
[11] = Herbicide No.1 0.14 + No.9 2.24 kg/ha + antidote 8.96 kg/ha
[12] = Herbicide No.1 0.56 + No.9 2.24 kg/ha + antidote 2.24 kg/ha
[13] = Herbicide No.1 0.56 + No.9 2.24 kg/ha + antidote 8.96 kg/ha
[14] = Herbicide No.1 0.56 kg/ha + ERADICANE 8.96 kg/ha, antidote 2.24 kg/ha
[15] = Herbicide No.1 0.56 kg/ha + ERADICANE 8.96 kg/ha, antidote 8.96 kg/ha
[16] = Herbicide No.1 1.12 kg/ha + ERADICANE 8.96 kg/ha, antidote 2.24 kg/ha
[17] = Herbicide No.1 1.12 kg/ha + ERADICANE 8.96 kg/ha, antidote 8.96 kg/ha
[18] = Herbicide No.1 0.14 kg/ha + Herbicide No.13 2.24 kg/ha, antidote rate 2.24 kg/ha
[19] = Herbicide No.1 0.14 kg/ha + Herbicide No.13 2.24 kg/ha, antidote rate 8.96 kg/ha
[20] = Herbicide No.1 0.56 kg/ha + Herbicide No.13 2.24 kg/ha, antidote rate 2.24 kg/ha
[21] = Herbicide No.1 0.56 kg/ha + Herbicide No.13 2.24 kg/ha, antidote rate 8.96 kg/ha
[22] = Herbicide No.1 0.14 kg/ha + Herbicide No.6 2.24 kg/ha, antidote rate 2.24 kg/ha
[23] = Herbicide No.1 0.14 kg/ha + Herbicide No.6 2.24 kg/ha, antidote rate 8.96 kg/ha
[24] = Herbicide No.1 0.56 kg/ha + Herbicide No.6 2.24 kg/ha, antidote rate 2.24 kg/ha
[25] = Herbicide No.1 0.56 kg/ha + Herbicide No.6 2.24 kg/ha, antidote rate 8.96 kg/ha
[26] = Herbicide No.1 0.14 + No.9 2.24 kg/ha, no antidote
[27] = Herbicide No.1 0.14 kg/ha alone
[28] = Herbicide No.1 0.56 + No.9 (butachlor) 2.24 kg/ha, no antidote
[29] = Herbicide No.1 0.56 kg/ha alone

Compound: C=CCN(CC=C)C(=O)C(Cl)Cl [compound 1]
- % Injury BYG [1, 10]: 99%
- % Injury BYG [1, 11]: 99%
- % Injury BYG [1, 12]: 98%
- % Injury BYG [1, 13]: 99%
- % Injury VL [2, 10]: 70%
- % Injury VL [2, 11]: 70%
- % Injury VL [2, 12]: 85%
- % Injury VL [2, 13]: 80%
- % Injury Corn (corn [3]; [14]): 30%
- % Injury Corn (corn [3]; [15]): 25%
- % Injury Corn (corn [3]; [16]): 35%
- % Injury Corn (corn [3]; [17]): 25%
- % Inhibition Corn (corn [4]; Herbicide No. 1 0.25 G/ha + antidote 7.41 G/ha): 23.2%
- % Inhibition Corn (corn [4]; Herbicide No. 1 0.74 G/ha + antidote 7.41 G/ha): 28.4%
- % Inhibition Corn (corn [4]; Herbicide No. 1 2.5 G/ha + antidote 7.41 G/ha): 26.2%
- % Inhibition Corn (corn [4]; Herbicide No. 2 0.25 G/ha + antidote 7.41 G/ha): 26.5%
- % Inhibition Corn (corn [4]; Herbicide No. 2 0.74 G/ha + antidote 7.41 G/ha): 28.9%
- % Inhibition Corn (corn [4]; Herbicide No. 2 2.5 G/ha + antidote 7.41 G/ha): 37.3%
- % Inhibition Corn (corn [4]; Herbicide No. 3 0.07 G/ha + antidote 7.41 G/ha): 9.3%
- % Inhibition Corn (corn [4]; Herbicide No. 3 0.25 G/ha + antidote 7.41 G/ha): 43.0%
- % Inhibition Corn (corn [4]; Herbicide No. 3 0.74 G/ha + antidote 7.41 G/ha): 83.9%
- inhibition at 7.41 g/ha (corn [4]; Zea mays, pre-emergence, antidote alone 7.41 G/ha, no herbicide, read-out: % Inhibition Corn): 21%
- % Injury BYG [5, 18]: 100%
- % Injury BYG [5, 19]: 100%
- % Injury BYG [5, 20]: 100%
- % Injury BYG [5, 21]: 100%
- % Injury VL [6, 18]: 75%
- % Injury VL [6, 19]: 75%
- % Injury VL [6, 20]: 85%
- % Injury VL [6, 21]: 85%
- % Injury Corn (corn [7]; [18]): 0%
- % Injury Corn (corn [7]; [19]): 0%
- % Injury Corn (corn [7]; [20]): 5%
- % Injury Corn (corn [7]; [21]): 10%
- % Injury Corn (corn [8]; [22]): 10%
- % Injury Corn (corn [8]; [23]): 10%
- % Injury Corn (corn [8]; [24]): 15%
- % Injury Corn (corn [8]; [25]): 15%

Compound: COC(=O)c1c(Cl)nn(C)c1S(=O)(=O)NC(=O)Nc1nc(OC)cc(OC)n1 [Herbicide No. 1]
- % Injury BYG [1, 26]: 100%
- % Injury BYG [1, 27]: 55%
- % Injury BYG [1, 28]: 100%
- % Injury BYG [1, 29]: 93%
- % Injury VL [2, 26]: 70%
- % Injury VL [2, 27]: 70%
- % Injury VL [2, 28]: 85%
- % Injury VL [2, 29]: 85%
- inhibition at 0.25 g/ha (corn [4]; Zea mays, pre-emergence, herbicide alone 0.25 G/ha, no antidote, read-out: % Inhibition Corn): 22.3%
- inhibition at 0.74 g/ha (corn [4]; Zea mays, pre-emergence, herbicide alone 0.74 G/ha, no antidote): 32.3%
- inhibition at 2.5 g/ha (corn [4]; Zea mays, pre-emergence, herbicide alone 2.5 G/ha, no antidote): 49.9%
- injury to corn (corn [7]; Herbicide No. 1 0.56 kg/ha + Herbicide No. 13 2.24 kg/ha in combination, no antidote): 65%
- % Injury Corn (corn [9]; Herb. No. 1 4.48 kg/ha, no antidote, average of two replicates): 85%
- % Injury Corn (corn [9]; Herb. No. 1 6.72 kg/ha, no antidote, average of two replicates): 90%
- combined corn injury (corn [8]; Herbicide No. 1 0.56 kg/ha + Herbicide No. 6 2.24 kg/ha, without an antidote): 45%
- injury to corn (corn [8]; Herbicide No. 1 0.56 kg/ha, without an antidote): 20%
- % Injury Corn (corn [8]; Herbicide No.1 0.14 kg/ha alone, no antidote): 15%
- % Injury Corn (corn [8]; Herbicide No.1 0.56 kg/ha alone, no antidote): 20%

Compound: CC1(C)OC(c2ccco2)CN1C(=O)C(Cl)Cl (stereo not drawn) [Antidote No. 15, Oxazolidine, 3-(dichloroacetyl)-5-(2-furanyl)-2,2-dimethyl]
- safening of corn, assessment in words (corn [7]; Herbicide Nos. 1 and 13, Table 9): commercial-level safening of corn
- % Injury Corn (corn [9]; Herb. No. 1 4.48 kg/ha + antidote 0.56 kg/ha): 10%
- % Injury Corn (corn [9]; Herb. No. 1 4.48 kg/ha + antidote 2.24 kg/ha): 13%
- safening of corn, assessment in words (corn [9]; Herbicide No. 1, Table 4): substantial safening of Herbicide No. 1

Compound: CC1(C)OC(c2ccco2)CN1C(=O)C(Cl)Cl (stereo not drawn) [compound 15]
- % Injury BYG [1, 10]: 99%
- % Injury BYG [1, 11]: 98%
- % Injury BYG [1, 12]: 95%
- % Injury BYG [1, 13]: 97%
- % Injury VL [2, 10]: 85%
- % Injury VL [2, 11]: 70%
- % Injury VL [2, 12]: 80%
- % Injury VL [2, 13]: 75%
- % Injury Corn (corn [3]; [14]): 25%
- % Injury Corn (corn [3]; [15]): 25%
- % Injury Corn (corn [3]; [16]): 15%
- % Injury Corn (corn [3]; [17]): 30%
- % Injury BYG [5, 18]: 100%
- % Injury BYG [5, 19]: 100%
- % Injury BYG [5, 20]: 99%
- % Injury BYG [5, 21]: 100%
- % Injury VL [6, 18]: 60%
- % Injury VL [6, 19]: 90%
- % Injury VL [6, 20]: 85%
- % Injury VL [6, 21]: 75%
- % Injury Corn (corn [7]; [18]): 5%
- % Injury Corn (corn [7]; [19]): 0%
- % Injury Corn (corn [7]; [20]): 15%
- % Injury Corn (corn [7]; [21]): 5%
- % Injury Corn (corn [9]; Herb. No. 1 6.72 kg/ha + antidote 0.56 kg/ha): 35%
- % Injury Corn (corn [9]; Herb. No. 1 6.72 kg/ha + antidote 2.24 kg/ha): 50%
- % Injury Corn (corn [8]; [22]): 15%
- % Injury Corn (corn [8]; [23]): 10%
- % Injury Corn (corn [8]; [24]): 20%
- % Injury Corn (corn [8]; [25]): 5%
